According to patent US8796324B2, “Substituted 2-acetamido-5-aryl-1,2,4-triazolones and use thereof” (Bayer Intellectual Property GmbH, priority 2009, dated 2014):

How the values were obtained:
human V1a receptor = target: T1, human V1a receptor (Homo sapiens, UniProt P37288); assay: Cellular in vitro assay for determining the vasopressin receptor activity (aequorin luminescence); format: cell-based; details: CHO cell line transfected with the human V1a receptor; agonist [Arg8]-vasopressin; read-out: IC50 hV1a
T1 construct: expressed in transfected cells; host or cells: CHO K1 (constitutively expressing modified aequorin)
T1 sequence (P37288 whole entry): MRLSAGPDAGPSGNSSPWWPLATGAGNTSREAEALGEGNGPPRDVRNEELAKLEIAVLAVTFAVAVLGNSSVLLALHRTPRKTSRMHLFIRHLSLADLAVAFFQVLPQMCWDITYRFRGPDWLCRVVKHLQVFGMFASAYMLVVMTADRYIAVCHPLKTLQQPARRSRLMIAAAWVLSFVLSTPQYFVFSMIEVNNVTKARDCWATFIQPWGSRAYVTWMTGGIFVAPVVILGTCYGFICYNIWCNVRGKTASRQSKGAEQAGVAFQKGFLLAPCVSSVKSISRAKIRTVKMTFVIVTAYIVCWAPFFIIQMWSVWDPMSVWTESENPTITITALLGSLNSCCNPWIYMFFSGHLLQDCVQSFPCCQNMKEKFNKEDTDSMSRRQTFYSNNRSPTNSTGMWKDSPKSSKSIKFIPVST
Description: (§1) B-1. Cellular In Vitro Assay for Determining the Vasopressin Receptor Activity
(§2) The identification of agonists and antagonists of the V1a and V2 vasopressin receptors from humans and rats and also the quantification of the activity of the substances described here took place using recombinant cell lines. These cells derive originally from a hamster ovary epithelial cell (Chinese Hamster Ovary, CHO K1, ATCC: American Type Culture Collection, Manassas, Va. 20108, USA). The test cell lines constitutively express a modified form of the calcium-sensitive photoprotein aequorin, which, after reconstitution with the cofactor coelenterazine, emits light when there are increases in the free calcium concentration (Rizzuto R., Simpson A. W., Brini M., Pozzan T.; Nature 358 (1992) 325-327). In addition, the cells are stably transfected with the human or rat V1a or V2 receptors. In the case of the Gs-coupling V2 receptors, the cells are stably transfected with a further gene, which codes for the promiscuous Gα16 protein (Amatruda T. T., Steele D. A., Slepak V. Z., Simon M. I., Proc. Nat. Acad. Sci. USA 88 (1991), 5587-5591), either independently or as a fusion gene. The resulting vasopressin receptor test cells react to stimulation of the recombinantly expressed vasopressin receptors by intracellular release of calcium ions, which can be quantified by the resulting aequorin luminescence using a suitable luminometer (Milligan G., Marshall F., Rees S., Trends in Pharmaco. Sci. 17 (1996) 235-237).
(§3) On the day before the assay, the cells are plated out in culture medium (DMEM, 10% FCS, 2 mM glutamine, 10 mM HEPES) in 384-well microtiter plates and kept in a cell incubator (96% humidity, 5% v/v carbon dioxide, 37° C.). On the day of the assay, the culture medium is replaced by a Tyrode solution (140 mM sodium chloride, 5 mM potassium chloride, 1 mM magnesium chloride, 2 mM calcium chloride, 20 mM glucose, 20 mM HEPES), which additionally contains the cofactor coelenterazine (50 μM), and the microtiter plate is then incubated for a further 3-4 hours. The test substances in various concentrations are placed for 10 to 20 minutes in the wells of the microtiter plate before the agonist [Arg8]-vasopressin is added, and the resulting light signal is measured immediately in the luminometer. The IC50 values are calculated using the GraphPad PRISM computer program (Version 3.02).
(§4) The table below lists representative IC50 values for the compounds of the invention on the cell line transfected with the human V1a or V2 receptor: […]

human V2 receptor = target: T2, human V2 receptor (Homo sapiens, UniProt P30518); assay: as above; format: cell-based; details: CHO cell line transfected with the human V2 receptor (and Gα16); agonist [Arg8]-vasopressin; read-out: IC50 hV2
T2 construct: expressed in transfected cells; host or cells: CHO K1 (constitutively expressing modified aequorin; co-transfected with promiscuous G-alpha-16)
T2 sequence (P30518 whole entry): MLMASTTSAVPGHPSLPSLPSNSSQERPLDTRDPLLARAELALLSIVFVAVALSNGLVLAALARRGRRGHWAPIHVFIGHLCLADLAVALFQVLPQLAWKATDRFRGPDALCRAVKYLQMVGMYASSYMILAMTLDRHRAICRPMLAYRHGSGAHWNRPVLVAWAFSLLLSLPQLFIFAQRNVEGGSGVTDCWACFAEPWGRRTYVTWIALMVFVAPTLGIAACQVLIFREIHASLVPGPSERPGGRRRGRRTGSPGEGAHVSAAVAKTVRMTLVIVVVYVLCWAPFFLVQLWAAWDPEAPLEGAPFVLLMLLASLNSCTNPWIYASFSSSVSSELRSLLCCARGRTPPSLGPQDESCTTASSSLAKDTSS
Description: as §1, §2, §3, §4

| IC50 (human V1a receptor) | IC50 (human V2 receptor) | Compound |
| --- | --- | --- |
| 72 nM | 26.6 nM | O=C(Cn1nc(-c2ccc(Cl)cc2)n(Cc2ccccc2F)c1=O)NC(CO)c1cccc(F)c1F (centres unmarked) [Example 184] |
| 55 nM | 45 nM | O=C(Cn1nc(-c2ccc(Cl)s2)n(Cc2ccccc2F)c1=O)NC(CO)c1cccc(F)c1F (centres unmarked) [Example 185] |
| 8.2 nM | 9.9 nM | COc1ccccc1C(CCOC(N)=O)NC(=O)Cn1nc(-c2ccc(Cl)cc2)n(C[C@H](O)C(F)(F)F)c1=O (stereo partly drawn) [Example 188, 3-[({3-(4-Chlorophenyl)-5-oxo-4-[(2S)-3,3,3-trifluoro-2-hydroxypropyl]-4,5-dihydro-1H-1,2,4-triazol-1-yl}acetyl)amino]-3-(2-methoxyphenyl)propyl carbamate] |
| 3.3 nM | 101 nM | NC(=O)OCC(NC(=O)Cn1cc(-c2ccc(Cl)cc2)n(CC(O)C(F)(F)F)c1=O)c1ccccc1C(F)(F)F (centres unmarked) [Example 207, 2-({[4-(4-Chlorophenyl)-2-oxo-3-(3,3,3-trifluoro-2-hydroxypropyl)-2,3-dihydro-1H-imidazol-1-yl]acetyl}amino)-2-[2-(trifluoromethyl)phenyl]ethyl carbamate] |
